Reference: patent US9510592B2, “Pesticidal compositions and processes related thereto” (Dow AgroSciences LLC, priority 2012, dated 2016)

Tests used:
Format in all cases: in vivo
[1] = test system: Beet Armyworm (Spodoptera exigua); test: Bioassay on Beet Armyworm (BAW), 128-well diet tray assay; details: Spodoptera exigua, 168 h; percent mortality of second instar larvae, 50 μg/cm^2 on artificial diet, five to seven days, 25° C.; Table 3; read-out: BAW Rating
Outline: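 Second-instar larvae (one to five per well) were placed on artificial diet surface-treated with 50 μg/cm^2 compound in acetone-water and held at 25 °C, 14:10 light-dark, for five to seven days. Percent mortality was averaged over eight wells.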

[2] = test system: Corn Earworm (Helicoverpa zea); test: Bioassay on Corn Earworm (CEW), 128-well diet tray assay; details: percent mortality of second instar larvae, 50 μg/cm^2 on artificial diet, five to seven days, 25° C., Table 3; for pest or weed control at 50 µg/cm2: Helicoverpa zea, 168 h, read-out: CEW Rating
Protocol: Certain molecules disclosed in this document were tested against BAW and CEW and CL using procedures described in the following examples. In the reporting of the results, the “BAW & CEW & CL Rating Table” was used (See Table Section).
Bioassays On CEW (Helicoverpa zea)
Bioassays on CEW were conducted using a 128-well diet tray assay. one to five second instar CEW larvae were placed in each well (3 mL) of the diet tray that had been previously filled with 1 mL of artificial diet to which 50 μg/cm^2 of the test compound (dissolved in 50 μL of 90:10 acetone-water mixture) had been applied (to each of eight wells) and then allowed to dry. Trays were covered with a clear self-adhesive cover, and held at 25° C., 14:10 light-dark for five to seven days. Percent mortality was recorded for the larvae in each well; activity in the eight wells was then averaged. The results are indicated in the table entitled “Table 3: Assay Results” (See Table Section).

[3] = test system: Green Peach Aphid (Myzus persicae); test: Bioassay on Green Peach Aphid (GPA), foliar spray on cabbage seedlings; details: 72 h, corrected % control (Abbott), 200 ppm spray on cabbage seedlings, three days, Table 3, read-out: GPA Rating
Protocol: Certain molecules disclosed in this document were tested against GPA using procedures described in the following example. In the reporting of the results, the “GPA Rating Table” was used (See Table Section). Cabbage seedlings grown in 3-inch pots, with 2-3 small (3-5 cm) true leaves, were used as test substrate. The seedlings were infested with 20-50 GPA (wingless adult and nymph stages) one day prior to chemical application. Four pots with individual seedlings were used for each treatment. Test compounds (2 mg) were dissolved in 2 mL of acetone/MeOH (1:1) solvent, forming stock solutions of 1000 ppm test compound. The stock solutions were diluted 5× with 0.025% Tween 20 in water to obtain the solution at 200 ppm test compound. A hand-held aspirator-type sprayer was used for spraying a solution to both sides of […] leaves until runoff. Reference plants (solvent check) were sprayed with the diluent only containing 20% by volume of acetone/MeOH (1:1) solvent. Treated plants were held in a holding room for three days at approximately 25° C. and ambient relative humidity (RH) prior to grading. Evaluation was conducted by counting the number of live aphids per plant under a microscope. Percent Control was measured by using Abbott's correction formula (W. S. Abbott, “A Method of Computing the Effectiveness of an Insecticide” J. Econ. Entomol. 18 (1925), pp. 265-267) as follows. Corrected % Control=100*(X−Y)/X • where • X=No. of live aphids on solvent check plants and • Y=No. of live aphids on treated plants The results are indicated in the table entitled “Table 3: Assay Results” (See Table Section).

Structure (SMILES): Cc1cc(/C=C/C(c2cc(Cl)cc(Cl)c2)C(F)(F)F)ccc1C(=O)NCc1cccnc1 (centres unmarked) [AC14]
- pest or weed control at 50 µg/cm2, 50 µg/cm2 [1]: 50 to 100%
- pest or weed control at 50 µg/cm2 [2]: 0 to 50%

Structure (SMILES): Cc1cc(/C=C/C(c2cc(Cl)c(Cl)c(Cl)c2)C(F)(F)F)ccc1C(=O)NC1CS(=O)(=O)C1 (centres unmarked) [AC25]
- pest or weed control at 50 µg/cm2, 50 µg/cm2 [1]: 50 to 100%
- pest or weed control at 50 µg/cm2 [2]: 50 to 100%

Structure (SMILES): Cc1cc(/C=C/C(c2cc(Cl)cc(Cl)c2)C(F)(F)F)ccc1C(=O)NC(C)c1ccc(Cl)nc1 (centres unmarked) [AC44]
- pest or weed control at 200 ppm [3]: 0 to 80%
- pest or weed control at 50 µg/cm2, 50 µg/cm2 [1]: 50 to 100%
- pest or weed control at 50 µg/cm2 [2]: 50 to 100%

Structure (SMILES): O=C(NCc1ccc(Cl)nc1)c1ccc(/C=C/C(c2cc(Cl)cc(Cl)c2)C(F)(F)F)cc1Br (centres unmarked) [AC46]
- pest or weed control at 50 µg/cm2, 50 µg/cm2 [1]: 50 to 100%
- pest or weed control at 50 µg/cm2 [2]: 50 to 100%

Structure (SMILES): O=C(CNC(=O)c1ccc(/C=C/C(c2cc(Cl)cc(Cl)c2)C(F)(F)F)cc1Cl)NCC(F)(F)F (centres unmarked) [AC57]
- pest or weed control at 200 ppm [3]: 0 to 80%
- pest or weed control at 50 µg/cm2, 50 µg/cm2 [1]: 50 to 100%
- pest or weed control at 50 µg/cm2 [2]: 50 to 100%

Structure (SMILES): Cc1cc(/C=C/C(c2cc(Cl)cc(Cl)c2)C(F)(F)F)cnc1C(=O)NCc1ccc(Cl)nc1 (centres unmarked) [AC60]
- pest or weed control at 200 ppm [3]: 0 to 80%
- pest or weed control at 50 µg/cm2, 50 µg/cm2 [1]: 50 to 100%
- pest or weed control at 50 µg/cm2 [2]: 50 to 100%

Structure (SMILES): CCc1cc(/C=C/C(c2cc(Cl)c(F)c(Cl)c2)C(F)(F)F)ccc1C(=O)NCc1cccnc1Cl (centres unmarked) [AC76]
- pest or weed control at 50 µg/cm2, 50 µg/cm2 [1]: 50 to 100%
- pest or weed control at 50 µg/cm2 [2]: 50 to 100%

Structure (SMILES): Cc1cc(/C=C/C(c2cc(Cl)cc(Cl)c2)C(F)(F)F)ccc1C(=O)N[C@H]1C[S@@+]([O-])C1 (some centres unmarked) [AC82]
- pest or weed control at 200 ppm [3]: 0 to 80%
- pest or weed control at 50 µg/cm2, 50 µg/cm2 [1]: 50 to 100%
- pest or weed control at 50 µg/cm2 [2]: 50 to 100%

Structure (SMILES): O=C(NC1CCN(CC(F)(F)F)CC1)c1ccc(/C=C/C(c2cc(Cl)c(Cl)c(Cl)c2)C(F)(F)F)cc1Br (centres unmarked) [AC105, (E)-2-Bromo-4-(4,4,4-trifluoro-3-(3,4,5-trichlorophenyl)but-1-en-1-yl)-N-(1-(2,2,2-trifluoroethyl)piperidin-4-yl)benzamide]
- pest or weed control at 50 µg/cm2, 50 µg/cm2 [1]: 50 to 100%
- pest or weed control at 50 µg/cm2 [2]: 50 to 100%

Structure (SMILES): CN(C)NC(=O)CNC(=O)c1ccc(/C=C/C(c2cc(Cl)c(Cl)c(Cl)c2)C(F)(F)F)cc1Br (centres unmarked) [AC112]
- pest or weed control at 50 µg/cm2, 50 µg/cm2 [1]: 50 to 100%
- pest or weed control at 50 µg/cm2 [2]: 50 to 100%

Structure (SMILES): CNC(=S)NC1CCc2cc(/C=C/C(c3cc(Cl)c(Cl)c(Cl)c3)C(F)(F)F)ccc21 (centres unmarked) [BC1, (E)-1-Methyl-3-(5-(4,4,4-trifluoro-3-(3,4,5-trichlorophenyl)-but-1-enyl)-2,3-dihydro-1H-inden-1-yl)thiourea]
- pest or weed control at 50 µg/cm2, 50 µg/cm2 [1]: 50 to 100%
- pest or weed control at 50 µg/cm2 [2]: 50 to 100%

Structure (SMILES): CCNC(=S)NC1CCc2cc(/C=C/C(c3cc(Cl)c(Cl)c(Cl)c3)C(F)(F)F)ccc21 (centres unmarked) [BC2]
- pest or weed control at 50 µg/cm2, 50 µg/cm2 [1]: 50 to 100%
- pest or weed control at 50 µg/cm2 [2]: 50 to 100%

Structure (SMILES): C=CCNC(=S)NC1CCc2cc(/C=C/C(c3cc(Cl)c(Cl)c(Cl)c3)C(F)(F)F)ccc21 (centres unmarked) [BC3]
- pest or weed control at 50 µg/cm2, 50 µg/cm2 [1]: 50 to 100%
- pest or weed control at 50 µg/cm2 [2]: 50 to 100%

Structure (SMILES): O=C(CC(F)(F)F)NC1CCc2cc(/C=C/C(c3cc(Cl)c(Cl)c(Cl)c3)C(F)(F)F)ccc21 (centres unmarked) [BC4, (E)-3,3,3-Trifluoro-N-(5-(4,4,4-trifluoro-3-(3,4,5-trichlorophenyl)but-1-enyl)-2,3-dihydro-1H-inden-1-yl)propanamide]
- pest or weed control at 200 ppm [3]: 0 to 80%
- pest or weed control at 50 µg/cm2, 50 µg/cm2 [1]: 50 to 100%
- pest or weed control at 50 µg/cm2 [2]: 50 to 100%

Structure (SMILES): O=C(CC(F)(F)F)NCc1ccc(/C=C/C(c2cc(Cl)c(Cl)c(Cl)c2)C(F)(F)F)cc1Cl (centres unmarked) [CC10]
- pest or weed control at 200 ppm [3]: 0 to 80%
- pest or weed control at 50 µg/cm2, 50 µg/cm2 [1]: 50 to 100%
- pest or weed control at 50 µg/cm2 [2]: 50 to 100%

Structure (SMILES): O=C(NCc1ccc(/C=C/C(c2cc(Cl)c(Cl)c(Cl)c2)C(F)(F)F)cc1)c1ccnc(Cl)c1 (centres unmarked) [CC13]
- pest or weed control at 200 ppm [3]: 0 to 80%
- pest or weed control at 50 µg/cm2, 50 µg/cm2 [1]: 50 to 100%
- pest or weed control at 50 µg/cm2 [2]: 50 to 100%

Structure (SMILES): O=C(CC(F)(F)F)NCc1ccc(/C=C/C(c2cc(Cl)c(F)c(Cl)c2)C(F)(F)F)cc1 (centres unmarked) [CC16]
- pest or weed control at 200 ppm [3]: 0 to 80%
- pest or weed control at 50 µg/cm2, 50 µg/cm2 [1]: 50 to 100%
- pest or weed control at 50 µg/cm2 [2]: 50 to 100%

Structure (SMILES): O=C(NCc1ccc(/C=C/C(c2cc(Cl)c(Cl)c(Cl)c2)C(F)(F)F)cc1Cl)Oc1ccccc1Cl (centres unmarked) [CC40]
- CEW Rating [2]: A (50-100)

Structure (SMILES): FC(F)(F)C(/C=C/c1ccc(-n2cncn2)cc1)c1ccc(Cl)cc1Cl (centres unmarked) [DC13]
- pest or weed control at 50 µg/cm2, 50 µg/cm2 [1]: 50 to 100%
- pest or weed control at 50 µg/cm2 [2]: 50 to 100%

Structure (SMILES): FC(F)(F)C(/C=C/c1ccc(-n2cncn2)cc1)c1cc(Cl)cc(Cl)c1Cl (centres unmarked) [DC17]
- pest or weed control at 50 µg/cm2, 50 µg/cm2 [1]: 50 to 100%
- pest or weed control at 50 µg/cm2 [2]: 50 to 100%
